Measured values from patent publication US20050197350A1, “Novel quinoline, tetrahydroquinazoline, and pyrimidine derivatives and methods of treatment related to the use thereof” (TAISHO PHARMACEUTICAL CO., LTD., priority 2003, published 2005).

system: MCH receptors; experiment: MCH receptor activity class (method not given); conditions: class by percent of control at 10^-7 M or IC50

Row | SMILES | class
1 | COc1ccc(NC(=O)N[C@H]2CC[C@@H](Nc3nccc(N(C)C)n3)CC2)cc1Cl [compound 2241] | 3 (Class 3 The value of percent of control at 10^−7 M was more than 60% or the value of IC50 was more than 200 nM.)
2 | CN(C)c1ccnc(N[C@H]2CC[C@@H](NC(=O)Nc3ccc(Br)cc3C(F)(F)F)CC2)n1 [compound 2242] | 3 (Class 3 The value of percent of control at 10^−7 M was more than 60% or the value of IC50 was more than 200 nM.)
3 | CN(C)c1ccnc(N[C@H]2CC[C@@H](NC(=O)NCc3ccc(Br)cc3)CC2)n1 [compound 2243] | 3 (Class 3 The value of percent of control at 10^−7 M was more than 60% or the value of IC50 was more than 200 nM.)
4 | Cc1cc(Cl)ccc1NC(=O)N[C@H]1CC[C@@H](Nc2nccc(N(C)C)n2)CC1 [compound 2244, N-(4-chloro-2-methylphenyl)-N′-(cis-4-{[4-(dimethylamino)pyrimidin-2-yl]amino}cyclohexyl)urea] | 2 (Class 2: The value of percent of control at 10^−7 M was from 40% to 60% or the value of IC′50 was from 50 nM to 200 nM.)
5 | CN(C)c1ccnc(N[C@H]2CC[C@@H](NC(=O)NCc3ccc(F)cc3)CC2)n1 [compound 2245] | 3 (Class 3 The value of percent of control at 10^−7 M was more than 60% or the value of IC50 was more than 200 nM.)
6 | COc1ccc(NC(=O)N[C@H]2CC[C@@H](Nc3nccc(N(C)C)n3)CC2)c(C)c1 [compound 2246] | 3 (Class 3 The value of percent of control at 10^−7 M was more than 60% or the value of IC50 was more than 200 nM.)
7 | COc1cc(OC)c(NC(=O)N[C@H]2CC[C@@H](Nc3nccc(N(C)C)n3)CC2)cc1Cl [compound 2247] | 1 (Class 1: The value of percent of control at 10^−7 M was less than 40% or the value of IC50 was less than 50 nM.)
8 | Cc1cc(Br)ccc1NC(=O)N[C@H]1CC[C@@H](Nc2nccc(N(C)C)n2)CC1 [compound 2249, N-(4-bromo-2-methylphenyl)-N′-(cis-4-{[4-(dimethylamino)pyrimidin-2-yl]amino}cyclohexyl)urea] | 2 (Class 2: The value of percent of control at 10^−7 M was from 40% to 60% or the value of IC′50 was from 50 nM to 200 nM.)
9 | CN(C)c1ccnc(N[C@H]2CC[C@@H](NC(=O)Nc3ccc4c(c3)OCCO4)CC2)n1 [compound 2251] | 3 (Class 3 The value of percent of control at 10^−7 M was more than 60% or the value of IC50 was more than 200 nM.)
10 | CC(C)c1cc(Br)c(NC(=O)N[C@H]2CC[C@@H](Nc3nccc(N(C)C)n3)CC2)c(Br)c1 [compound 2252] | 2 (Class 2: The value of percent of control at 10^−7 M was from 40% to 60% or the value of IC′50 was from 50 nM to 200 nM.)
11 | COc1ccc(NC(=O)N[C@H]2CC[C@@H](Nc3nccc(N(C)C)n3)CC2)cc1OC1CCCC1 [compound 2253] | 2 (Class 2: The value of percent of control at 10^−7 M was from 40% to 60% or the value of IC′50 was from 50 nM to 200 nM.)
12 | CN(C)c1ccnc(N[C@H]2CC[C@@H](NC(=O)Nc3ccc4c(c3)OCCCO4)CC2)n1 [compound 2254] | 3 (Class 3 The value of percent of control at 10^−7 M was more than 60% or the value of IC50 was more than 200 nM.)
13 | CCCCc1ccc(NC(=O)N[C@H]2CC[C@@H](Nc3nccc(N(C)C)n3)CC2)c(C)c1 [compound 2255] | 3 (Class 3 The value of percent of control at 10^−7 M was more than 60% or the value of IC50 was more than 200 nM.)
14 | Cc1onc(-c2ccccc2)c1NC(=O)N[C@H]1CC[C@@H](Nc2nccc(N(C)C)n2)CC1 [compound 2256] | 3 (Class 3 The value of percent of control at 10^−7 M was more than 60% or the value of IC50 was more than 200 nM.)
15 | CN(C)c1ccnc(N[C@H]2CC[C@@H](NC(=S)Nc3ccc(Br)cc3)CC2)n1 [compound 2257] | 3 (Class 3 The value of percent of control at 10^−7 M was more than 60% or the value of IC50 was more than 200 nM.)
16 | CN(C)c1ccnc(N[C@H]2CC[C@@H](NC(=S)Nc3ccc(C#N)cc3)CC2)n1 [compound 2258] | 2 (Class 2: The value of percent of control at 10^−7 M was from 40% to 60% or the value of IC′50 was from 50 nM to 200 nM.)
17 | CN(C)c1ccnc(N[C@H]2CC[C@@H](NC(=S)Nc3ccc(Cl)cc3Cl)CC2)n1 [compound 2259] | 3 (Class 3 The value of percent of control at 10^−7 M was more than 60% or the value of IC50 was more than 200 nM.)
18 | COc1ccc(NC(=S)N[C@H]2CC[C@@H](Nc3nccc(N(C)C)n3)CC2)c(OC)c1 [compound 2260] | 2 (Class 2: The value of percent of control at 10^−7 M was from 40% to 60% or the value of IC′50 was from 50 nM to 200 nM.)
19 | Cc1cccc(C)c1NC(=S)N[C@H]1CC[C@@H](Nc2nccc(N(C)C)n2)CC1 [compound 2261] | 3 (Class 3 The value of percent of control at 10^−7 M was more than 60% or the value of IC50 was more than 200 nM.)
20 | CCc1cccc(C(C)C)c1NC(=S)N[C@H]1CC[C@@H](Nc2nccc(N(C)C)n2)CC1 [compound 2262] | 3 (Class 3 The value of percent of control at 10^−7 M was more than 60% or the value of IC50 was more than 200 nM.)

Row | SMILES | class
21 | COc1ccccc1NC(=S)N[C@H]1CC[C@@H](Nc2nccc(N(C)C)n2)CC1 [compound 2263] | 3 (Class 3 The value of percent of control at 10^−7 M was more than 60% or the value of IC50 was more than 200 nM.)
22 | CN(C)c1ccnc(N[C@H]2CC[C@@H](NC(=S)Nc3cccc4ccccc34)CC2)n1 [compound 2264] | 3 (Class 3 The value of percent of control at 10^−7 M was more than 60% or the value of IC50 was more than 200 nM.)
23 | COc1cc(NC(=S)N[C@H]2CC[C@@H](Nc3nccc(N(C)C)n3)CC2)cc(OC)c1OC [compound 2265, N-(cis-4-{[4-(dimethylamino)pyrimidin-2-yl]amino}cyclohexyl)-N′-(3,4,5-trimethoxyphenyl)thiourea] | 1 (Class 1: The value of percent of control at 10^−7 M was less than 40% or the value of IC50 was less than 50 nM.)
24 | COc1ccc(NC(=S)N[C@H]2CC[C@@H](Nc3nccc(N(C)C)n3)CC2)cc1OC [compound 2266] | 2 (Class 2: The value of percent of control at 10^−7 M was from 40% to 60% or the value of IC′50 was from 50 nM to 200 nM.)
25 | CN(C)c1ccnc(N[C@H]2CC[C@@H](NC(=S)Nc3ccc(N(C)C)c4ccccc34)CC2)n1 [compound 2267] | 2 (Class 2: The value of percent of control at 10^−7 M was from 40% to 60% or the value of IC′50 was from 50 nM to 200 nM.)
26 | CCc1ccccc1NC(=S)N[C@H]1CC[C@@H](Nc2nccc(N(C)C)n2)CC1 [compound 2268] | 3 (Class 3 The value of percent of control at 10^−7 M was more than 60% or the value of IC50 was more than 200 nM.)
27 | COc1cc([N+](=O)[O-])ccc1NC(=S)N[C@H]1CC[C@@H](Nc2cc(N(C)C)c3ccccc3n2)CC1 [compound 2269] | 3 (Class 3 The value of percent of control at 10^−7 M was more than 60% or the value of IC50 was more than 200 nM.)
28 | COc1ccc(C)cc1NC(=S)N[C@H]1CC[C@@H](Nc2cc(N(C)C)c3ccccc3n2)CC1 [compound 2270] | 3 (Class 3 The value of percent of control at 10^−7 M was more than 60% or the value of IC50 was more than 200 nM.)
29 | CN(C)c1cc(N[C@H]2CC[C@@H](NC(=S)Nc3ccc(Br)cc3Cl)CC2)nc2ccccc12 [compound 2271] | 3 (Class 3 The value of percent of control at 10^−7 M was more than 60% or the value of IC50 was more than 200 nM.)
30 | CN(C)c1cc(N[C@H]2CC[C@@H](NC(=S)Nc3ccc(I)cc3)CC2)nc2ccccc12 [compound 2272] | 3 (Class 3 The value of percent of control at 10^−7 M was more than 60% or the value of IC50 was more than 200 nM.)
31 | CN(C)c1cc(N[C@H]2CC[C@@H](NC(=S)Nc3c(Cl)cc(Cl)cc3Cl)CC2)nc2ccccc12 [compound 2274, N-(cis-4-{[4-(dimethylamino)quinolin-2-yl]amino}cyclohexyl)-N′-(2,4,6-trichlorophenyl)thiourea] | 2 (Class 2: The value of percent of control at 10^−7 M was from 40% to 60% or the value of IC′50 was from 50 nM to 200 nM.)
32 | Cc1cc(C)c(NC(=S)N[C@H]2CC[C@@H](Nc3cc(N(C)C)c4ccccc4n3)CC2)c(C)c1 [compound 2275, N-(cis-4-{[4-(dimethylamino)quinolin-2-yl]amino}cyclohexyl)-N′-mesitylthiourea] | 1 (Class 1: The value of percent of control at 10^−7 M was less than 40% or the value of IC50 was less than 50 nM.)
33 | Cc1ccc(NC(=S)N[C@H]2CC[C@@H](Nc3cc(N(C)C)c4ccccc4n3)CC2)c(C)c1 [compound 2276] | 3 (Class 3 The value of percent of control at 10^−7 M was more than 60% or the value of IC50 was more than 200 nM.)
34 | CCc1cccc(CC)c1NC(=S)N[C@H]1CC[C@@H](Nc2cc(N(C)C)c3ccccc3n2)CC1 [compound 2277] | 1 (Class 1: The value of percent of control at 10^−7 M was less than 40% or the value of IC50 was less than 50 nM.)
35 | Cc1ccc(NC(=S)N[C@H]2CC[C@@H](Nc3cc(N(C)C)c4ccccc4n3)CC2)c(Br)c1 [compound 2278] | 3 (Class 3 The value of percent of control at 10^−7 M was more than 60% or the value of IC50 was more than 200 nM.)
36 | CN(C)c1cc(N[C@H]2CC[C@@H](NC(=S)NCc3ccccc3Cl)CC2)nc2ccccc12 [compound 2279] | 3 (Class 3 The value of percent of control at 10^−7 M was more than 60% or the value of IC50 was more than 200 nM.)
37 | CCc1cccc(C)c1NC(=S)N[C@H]1CC[C@@H](Nc2cc(N(C)C)c3ccccc3n2)CC1 [compound 2280] | 3 (Class 3 The value of percent of control at 10^−7 M was more than 60% or the value of IC50 was more than 200 nM.)
38 | CC(C)c1ccccc1NC(=S)N[C@H]1CC[C@@H](Nc2cc(N(C)C)c3ccccc3n2)CC1 [compound 2281] | 3 (Class 3 The value of percent of control at 10^−7 M was more than 60% or the value of IC50 was more than 200 nM.)
39 | COC(=O)c1cccc(NC(=S)N[C@H]2CC[C@@H](Nc3cc(N(C)C)c4ccccc4n3)CC2)c1 [compound 2282] | 3 (Class 3 The value of percent of control at 10^−7 M was more than 60% or the value of IC50 was more than 200 nM.)
40 | Cc1cc(Br)cc(C)c1NC(=S)N[C@H]1CC[C@@H](Nc2cc(N(C)C)c3ccccc3n2)CC1 [compound 2283, N-(4-bromo-2,6-dimethylphenyl)-N′-(cis-4-{[4-(dimethylamino)quinolin-2-yl]amino}cyclohexyl)thiourea] | 1 (Class 1: The value of percent of control at 10^−7 M was less than 40% or the value of IC50 was less than 50 nM.)
